The test system of the assay is NK1 receptor. Kind of assay: NK1 Receptor Antagonism Assay (calcium imaging, substance P stimulation). The note with it: for Efficacy (NK1 receptor antagonistic activity grade): substance P 100 μM; for effect as the NK1 receptor antagonist (in words): summary of Table 1. Format: cell-based, human. From the text:
[Performance Evaluation Test] NK1 Receptor Antagonism Assay
In this test, maltose, maltotriose, maltotetraose, maltopentaose, maltohexaose and maltoheptaose were purchased from SIGMA, isomaltose, isomaltotriose, isomaltotetraose, isomaltopentaose, isomaltohexaose and isomaltoheptaose were purchased from Seikagaku Corporation, and four types of oligosaccharides-1-kestose, fructofranosylnystose, nystose and galactotetraose—were purchased from Wako Pure Chemicals Industries Ltd. Each oligosaccharide was diluted with saline, and used.
In order to transiently express a cloned human NK1 receptor in HEK293, cDNA of the human NK1 receptor was cut out from pCDM8 (Invitrogen), and cloned in an expression vector pCDM9 derived by inserting an ampicillin resistant gene (BLUESCRIPT, nucleotides 1973 to 2964 from SK+) at a SacII site.
HEK293 cells were seeded at 1×10^5 cells in a Falcon dish (diameter: 3.5 cm) using α-MEM medium (Gibco) containing 10% bovine fetal serum, and cultured in a 5% CO2 incubator at 37° C. overnight. Then, 20 μg of the expression vector was transfected using Transfection Reagent FuGENE6 (Roche) according to attached instructions, and the transfectants were incubated at 37° C. for 3 days and assayed by a calcium imaging method.
According to Renganathan et al's method (Renganathan M et al., J. Neurophysiol., 84(2), […] (2000)), nerve cells were dispersed and isolated from spinal dorsal root ganglion in a wild type mouse, and 1×10^5 thereof were seeded in a 24-well plate coated with poly-L-lysine. The cells were cultured in 90% DMEM medium (GIBCO) supplemented with 10% bovine fetal serum, 2 mM glutamine, 100 U/mL of penicillin/streptomycin, 100 ng/mL of NGF (SIGMA) and 5 μM cytosine arabinoside (SIGMA) under 5% CO2 at 37° C. The cells were cultured for 1 to 3 weeks, and subsequently subjected to a calcium imaging analysis. A half of the nerve cells was identified to be positive for the NK1 receptor by staining the nerve cells derived from spinal dorsal root ganglion in the wild type mouse with an anti-NK1 receptor antibody (supplied from CHEMICON International).
The cells which express the NK1 receptor transiently or constitutively were subjected to measurement using a high resolution digital B/W cooling CCD camera (ORCA supplied from Hamamatsu Photonics K.K.), and their images were analyzed using an analysis software (AQUA COSMOS supplied from Hamamatsu Photonics K.K.). When the cells were labeled for calcium, Fluo4-AM (supplied from Molecular Probe) was used as a calcium sensitive dye. Fifty μg of Fluo4-AM was dissolved in 400 μL of DMSO in a vial, 4 μL of Pluronic F-127 (Molecular Probe) was added and mixed, and then 4 mL of OPTI-MEM (GIBCO) was added thereto. The calcium sensitive dye solution thus prepared was added to the cells, which were then incubated at 37° C. for 60 minutes. An agonist, an antagonist and samples to be evaluated were prepared at concentrations which were 10 times higher than assay concentrations, and analyzed by adding a one tenth volume of the cell suspension upon analysis. All reagents and an assay temperature were kept at 37° C. For the cells transfected transiently, YFP reporter DNA fluorescence (excitation: 490 nm) was used for identifying the transfected cells. Upon measurement, a fluorescence intensity obtained by initially imaging the untreated cells was made an initial value. After passing one minute, a change of calcium/fluorescence intensity in the sample to be evaluated at the desired concentration was monitored with an interval of one second before and after the addition (2 to 5 minutes). Subsequently, substance P was added, and immediately after (2 to 5 minutes), an antagonistic activity of the sample to be evaluated was determined by monitoring the change of intracellular calcium concentrations as the change of the fluorescence intensities with the interval of one second. […]

Setting [1] is: evaluated concentration 1000 ppm.

Structures are written as SMILES.

On to `OC[C@H]1O[C@H](O[C@H]2[C@H](O)[C@@H](O)C(O)O[C@@H]2CO)[C@H](O)[C@@H](O)[C@@H]1O` (mixture of isomers) [Maltose, maltose], for which the “effect as the NK1 receptor antagonist (in words)” value (“effect” below) is “high effect”. In addition, for the setting “evaluated concentration 0.1 ppm”, the “Efficacy (NK1 receptor antagonistic activity grade)” value (shortened to “Efficacy”) is “D (Ineffective: the antagonistic activity was less than 65%, or the stimulating or agonistic activity of the sample was strong.)”. Also, where the note is “evaluated concentration 1 ppm”, the “Efficacy” value is “D (Ineffective: the antagonistic activity was less than 65%, or the stimulating or agonistic activity of the sample was strong.)”. In addition, the “Efficacy” value (evaluated concentration 10 ppm) was “C (Slightly effective: the antagonistic activity was less than 65%, and a stimulating or agonistic activity of the sample was weak.)”. Also, the “Efficacy” value (evaluated concentration 100 ppm) is “C (Slightly effective: the antagonistic activity was less than 65%, and a stimulating or agonistic activity of the sample was weak.)”. The “Efficacy” value under setting [1] was “B (Effective: the antagonistic activity was 65% or more and less than 75% and the more excellent performance than in the positive control was shown.)”.

In the case of `OC[C@H]1O[C@@](CO)(OC[C@@]2(O[C@H]3O[C@H](CO)[C@@H](O)[C@H](O)[C@H]3O)O[C@H](CO)[C@@H](O)[C@@H]2O)[C@@H](O)[C@@H]1O` [Example 1-Kestose, 1-kestose, reference compound], the “effect” value is on record as “no NK1 receptor antagonistic activity was observed at all”. Besides, the “Efficacy” value under setting [1] is on record as “D (Ineffective: the antagonistic activity was less than 65%, or the stimulating or agonistic activity of the sample was strong.)”.

`OC[C@H]1O[C@@](CO)(OC[C@@]2(OC[C@@]3(OC[C@@]4(O[C@H]5O[C@H](CO)[C@@H](O)[C@H](O)[C@H]5O)O[C@H](CO)[C@@H](O)[C@@H]4O)O[C@H](CO)[C@@H](O)[C@@H]3O)O[C@H](CO)[C@@H](O)[C@@H]2O)[C@@H](O)[C@@H]1O` [Fructofranosylnystose, fructofranosylnystose, reference compound]: the “effect” value was “no NK1 receptor antagonistic activity was observed at all”. Moreover, the “Efficacy” value under setting [1] was “D (Ineffective: the antagonistic activity was less than 65%, or the stimulating or agonistic activity of the sample was strong.)”.

In the case of `OC[C@H]1O[C@@H](O[C@@H]2[C@H](O)[C@@H](O)[C@H](O[C@@H]3[C@H](O)[C@@H](O)[C@H](O[C@@H]4[C@H](O)[C@@H](O)C(O)O[C@@H]4CO)O[C@@H]3CO)O[C@@H]2CO)[C@H](O)[C@@H](O)[C@H]1O` (stereo partly drawn) [Galactotetraose, galactotetraose, reference compound], the “effect” value is “no NK1 receptor antagonistic activity was observed at all”. Besides, under setting [1], the “Efficacy” value is given as “D (Ineffective: the antagonistic activity was less than 65%, or the stimulating or agonistic activity of the sample was strong.)”.

In the case of `OC[C@H]1O[C@H](OC[C@H]2O[C@H](OC[C@H]3O[C@H](OC[C@H]4O[C@H](OC[C@H]5O[C@H](OC[C@H]6O[C@H](OC[C@H]7OC(O)[C@H](O)[C@@H](O)[C@@H]7O)[C@H](O)[C@@H](O)[C@@H]6O)[C@H](O)[C@@H](O)[C@@H]5O)[C@H](O)[C@@H](O)[C@@H]4O)[C@H](O)[C@@H](O)[C@@H]3O)[C@H](O)[C@@H](O)[C@@H]2O)[C@H](O)[C@@H](O)[C@@H]1O` (stereo partly drawn) [Isomaltoheptaose, isomaltoheptaose, reference compound], the “effect” value was “no NK1 receptor antagonistic activity was observed at all”. Moreover, the “Efficacy” value under setting [1] was “D (Ineffective: the antagonistic activity was less than 65%, or the stimulating or agonistic activity of the sample was strong.)”.

Consider `OC[C@H]1O[C@H](OC[C@H]2O[C@H](OC[C@H]3O[C@H](OC[C@H]4O[C@H](OC[C@H]5O[C@H](OC[C@H]6OC(O)[C@H](O)[C@@H](O)[C@@H]6O)[C@H](O)[C@@H](O)[C@@H]5O)[C@H](O)[C@@H](O)[C@@H]4O)[C@H](O)[C@@H](O)[C@@H]3O)[C@H](O)[C@@H](O)[C@@H]2O)[C@H](O)[C@@H](O)[C@@H]1O` (stereo partly drawn) [Isomaltohexaose, isomaltohexaose, reference compound], for which the “effect” value is given as “no NK1 receptor antagonistic activity was observed at all”. Also, the “Efficacy” value under setting [1] is “D (Ineffective: the antagonistic activity was less than 65%, or the stimulating or agonistic activity of the sample was strong.)”.

As to `OC[C@H]1O[C@H](OC[C@H]2O[C@H](OC[C@H]3O[C@H](OC[C@H]4O[C@H](OC[C@H]5OC(O)[C@H](O)[C@@H](O)[C@@H]5O)[C@H](O)[C@@H](O)[C@@H]4O)[C@H](O)[C@@H](O)[C@@H]3O)[C@H](O)[C@@H](O)[C@@H]2O)[C@H](O)[C@@H](O)[C@@H]1O` (stereo partly drawn) [Isomaltopentaose, isomaltopentaose, reference compound], the “effect” value is “no NK1 receptor antagonistic activity was observed at all”. Further, under setting [1], the “Efficacy” value is reported as “D (Ineffective: the antagonistic activity was less than 65%, or the stimulating or agonistic activity of the sample was strong.)”.

Consider `OC[C@H]1O[C@H](OC[C@H]2OC(O)[C@H](O)[C@@H](O)[C@@H]2O)[C@H](O)[C@@H](O)[C@@H]1O` (stereo partly drawn) [Isomaltose, isomaltose, reference compound], for which the “effect” value is given as “no NK1 receptor antagonistic activity was observed at all”. Under setting [1], the “Efficacy” value was “D (Ineffective: the antagonistic activity was less than 65%, or the stimulating or agonistic activity of the sample was strong.)”.

As to `OC[C@H]1O[C@H](OC[C@H]2O[C@H](OC[C@H]3O[C@H](OC[C@H]4OC(O)[C@H](O)[C@@H](O)[C@@H]4O)[C@H](O)[C@@H](O)[C@@H]3O)[C@H](O)[C@@H](O)[C@@H]2O)[C@H](O)[C@@H](O)[C@@H]1O` (stereo partly drawn) [Isomaltotetraose, isomaltotetraose, reference compound], the “effect” value is “no NK1 receptor antagonistic activity was observed at all”. Under setting [1], the “Efficacy” value is recorded as “D (Ineffective: the antagonistic activity was less than 65%, or the stimulating or agonistic activity of the sample was strong.)”.

With `OC[C@H]1O[C@H](OC[C@H]2O[C@H](OC[C@H]3OC(O)[C@H](O)[C@@H](O)[C@@H]3O)[C@H](O)[C@@H](O)[C@@H]2O)[C@H](O)[C@@H](O)[C@@H]1O` (stereo partly drawn) [Isomaltotriose, isomaltotriose, reference compound], the “effect” value was “no NK1 receptor antagonistic activity was observed at all”. For the same compound, the “Efficacy” value under setting [1] was “D (Ineffective: the antagonistic activity was less than 65%, or the stimulating or agonistic activity of the sample was strong.)”.
